Publication PMC7615343, “Fluorination Influences the Bioisostery of Myo-Inositol Pyrophosphate Analogs” (Chemistry (Weinheim an der Bergstrasse, Germany), 2023)

Columns and labels:
[1] = target: T1, PPIP5K2^1-366 (human PPIP5K2 kinase domain) (Homo sapiens, UniProt O43314); assay: Isothermal titration calorimetry of ligand binding to PPIP5K2KD; settings: ITC, 25°C; for ΔH / ΔS: 7.5 μM PPIP5K2^1-366, 75 μM ligand, pH 7.2; for Kd: 7.5 μM PPIP5K2^1-366 in cell, 75 μM ligand in syringe, pH 7.2, 1mM AMP-PNP, 1mM MgCl2, read-out: Kd (apparent)
T1 construct: one comprised residues 1–366; made in house
T1 sequence (O43314 1-366): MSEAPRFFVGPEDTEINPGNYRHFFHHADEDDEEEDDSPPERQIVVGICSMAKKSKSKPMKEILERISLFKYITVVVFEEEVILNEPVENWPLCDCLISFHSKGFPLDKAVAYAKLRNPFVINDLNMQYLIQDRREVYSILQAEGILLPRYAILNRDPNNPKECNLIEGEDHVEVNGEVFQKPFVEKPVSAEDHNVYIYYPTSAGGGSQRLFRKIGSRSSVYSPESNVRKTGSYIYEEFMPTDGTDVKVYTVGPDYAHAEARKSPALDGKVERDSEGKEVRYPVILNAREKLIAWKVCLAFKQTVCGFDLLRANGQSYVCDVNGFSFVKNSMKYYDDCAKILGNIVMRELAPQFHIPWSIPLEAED
Description: We next used isothermal titration calorimetry (ITC) to analyze the interactions of PPIP5K2^KD with 5PP-IP5 and each of the four analogs studied herein (Figure 5A-E). […] At the same time, the enthalpic gain for binding was largest for 5PCF2Am-IP5 and 5PA-IP5. A possible explanation may be that these two ligands are less strongly hydrated, due to their lower overall charge. The enthalpic cost for dehydration of 5PCF2Am-IP5 and 5PA-IP5 is therefore lower, compared to the other molecules, resulting in a higher enthalpic gain overall. A less strongly hydrated ligand will also release fewer water molecules upon binding, consistent with the lower entropic gains.
Figure 5 Analysis of ligand binding to the PPIP5K2^KD by ITC. Test solutions contained 7.5 μM of PPIP5K2^1-366 in the sample cell and 75 μM ligand in the syringe. Other details are provided in the Methods Section. Representative thermograms (1 of 3 replicates) are shown for titration of either (A) 5PP-IP5; (B) 5PCPF2P-IP5; (C) 5PCP-IP5; (D) 5PCF2Am-IP5; (E) 5PA-IP5. (F) Corresponding thermodynamic data. TEXT PRINTED IN THE PICTURE: (F) 5PP-: Kd (nM): 123 ± 13; ΔH (kJ/mol): -26 ± 2; ΔS (kJ/mol/deg): 0.046 ± 0.008 | (F) 5PCF2-: Kd (nM): 246 ± 10; ΔH (kJ/mol): -16 ± 1; ΔS (kJ/mol/deg): 0.072 ± 0.005 | (F) 5PCP-: Kd (nM): 100 ± 10; ΔH (kJ/mol): -20 ± 2; ΔS (kJ/mol/deg): 0.067 ± 0.016 | (F) 5PCF2-Am-: Kd (nM): 90 ± 13; ΔH (kJ/mol): -38 ± 2; ΔS (kJ/mol/deg): 0.007 ± 0.004 | (F) 5PA-: Kd (nM): 90 ± 7; ΔH (kJ/mol): -36 ± 3; ΔS (kJ/mol/deg): 0.013 ± 0.008 […]
(§1) Calorimetry experiments were performed using a MicroCal PEAQ-ITC (Malvern Panalytical) with 7.5 μM recombinant PPIP5K21-366 in the sample cell and 75 μM of ligand in the syringe, each of which was maintained at 25°C in buffer containing 20 mM HEPES, pH 7.2, 150 mM KCl, 0.05 mM EDTA, 1mM AMP-PNP, 1mM MgCl2 as indicated. The sample cell (volume = 204 μL) and the syringe were cleaned before each run. Thermograms were constructed from 13 injections, each of which involved 3 μL of ligand delivered for 6 s, with an equilibration time of 150-300 s between each injection. The stirring speed was set to 750 rpm. Data were fitted to a single binding site model using the analysis software provided by the manufacturer. At least three runs were performed for each condition.
Protein expression and purification.
Throughout the main text, PPIP5K2KD is deployed as an abbreviation for the human PPIP5K2 kinase domain. However, two different constructs were utilized, as described in the figure legends and within the Methods section below: one comprised residues 1–366 (PPIP5K21-366) and the other comprised residues 41–366 (PPIP5K241-366). Both constructs were expressed and purified as described previously.[6] The human DIPP1 construct (residues 1-148) was expressed and purified as described in [7]. […]
The molecular graphics representations wer e prepared with the program PyMol (Schrödinger, LLC). Atomic coordinates an d structure factors have been deposited with the Protein Data Bank with accession codes 8G9C, 8G9D, 8G9E.
PPIP5K2KD reverse kinase assay […]
Isothermal titration calorimetry
as §1, with “PPIP5K21–366” for “PPIP5K21-366”, “2 04 µL)” for “204 μL)”, “µL” for “μL”, “150 -300” for “150-300”, “cond ition. […]” for “condition.”

[2] = target: T1, PPIP5K2^1-366 (human PPIP5K2 kinase domain); settings: published value; read-out: IC50, inhibition of the reverse kinase activity of PPIP5K2KD; cited from earlier work

ΔH [1] [kcal/mol]	ΔS [1] [kJ/mol/deg]	Kd [1] [nM]	SMILES	IC50 [2] [nM]
-6.21 ± 0.48	0.046 ± 0.008	123	O=P(O)(O)O[C@H]1[C@@H](OP(=O)(O)O)[C@H](OP(=O)(O)O)[C@@H](OP(=O)(O)OP(=O)(O)O)[C@H](OP(=O)(O)O)[C@H]1OP(=O)(O)O [5PP-IP5, 5-diphosphoinositol pentakisphosphate]	
-8.6 ± 0.72	0.013 ± 0.008	90 ± 7	O=C(CP(=O)(O)O)O[C@@H]1[C@@H](OP(=O)(O)O)[C@H](OP(=O)(O)O)[C@H](OP(=O)(O)O)[C@H](OP(=O)(O)O)[C@H]1OP(=O)(O)O [5PA-IP5]	129

SMILES	ΔH [1] [kcal/mol]	ΔS [1] [kJ/mol/deg]	Kd [1] [nM]	IC50 [2] [nM]
O=C(N[C@@H]1[C@@H](OP(=O)(O)O)[C@H](OP(=O)(O)O)[C@H](OP(=O)(O)O)[C@H](OP(=O)(O)O)[C@H]1OP(=O)(O)O)C(F)(F)P(=O)(O)O [5PCF2Am-IP5]	-9.08 ± 0.48	0.007 ± 0.004	90 ± 13	
